Data set [1] in a line: AUC (0 to tau) in human plasma at 200 mg qd for 4 days. Format: ADME, organism-based.
A short description of data set [2]: Cmax in human plasma at 200 mg qd for 4 days. The class given is ADME, organism-based. More on the design: dose 200 mg.

`CC(=O)N1CCN(c2ccc(OCC3COC(Cn4ccnc4)(c4ccc(Cl)cc4Cl)O3)cc2)CC1` (configuration not stated) [KETOCONAZOLE] registered an AUC tau at 96 h in data set [1] of 16600 ng·h/mL. This compound displayed a Cmax in data set [2] of 3770 ng/mL.

The values above are taken from ChEMBL document CHEMBL1155157, “Fosamprenavir plus ritonavir increases plasma ketoconazole and ritonavir exposure, while amprenavir exposure remains unchanged” (Antimicrob Agents Chemother, 2007).
